This note sets out measurements from PubChem BioAssay (NCI).

Holding throughout (assay): growth of human tumour cells (NCI), 48 h
Experiment [1] has as its system A498 renal.
For experiment [2], the system named is HOP-62 NSCLC.
In experiment [3] the test system is MALME-3M melanoma.
Experiment [4] relates to MCF7 breast.
For experiment [5], the system named is SF-268 CNS.
The subject of experiment [6] is SN12C renal.
For experiment [7], the system named is SR leukemia.
In experiment [8] the test system is HCC-2998 colon.

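Tested at 5 concentrations; 48 h exposure; 96-well plates; endpoints linearly interpolated, else capped at highest concentration. GI50 = concentration required for 50% inhibition of growth. TGI marks complete inhibition of growth.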

Regarding `COC(=O)c1cccc(COc2ccc([N+](=O)[O-])cc2Cl)c1`, the TGI in experiment [1], in experiment [2], in experiment [3], in experiment [4], in experiment [5] and in experiment [6] was over 100 µM each time. Further, the TGI in experiment [7] is over 100 µM.
Turning to `COc1cccc(/C=N/[N-]C(N)=O)c1[O-].[Cu+2].c1ccncc1`, the TGI in experiment [1] is 45.5 µM; in experiment [8], over 100 µM; in experiment [2], 52.1 µM; in experiment [3], 28.3 µM; in experiment [5], 39.2 µM; in experiment [6], 46.7 µM.
On to `COc1cc(Nc2nccc(-c3cnn4ncccc34)n2)cc(OC)c1`, for which the GI50 in experiment [1] was 0.0576 µM; in experiment [8], 0.104 µM; in experiment [2] it was 0.0868 µM; in experiment [3], 0.132 µM; in experiment [4], 0.0521 µM; in experiment [5], 0.0697 µM. In addition, the GI50 in experiment [6] is 0.0942 µM. Besides, the TGI in experiment [1] stood at 0.183 µM; in experiment [8] it was 1.71 µM; in experiment [2], 0.651 µM; in experiment [3], 1.26 µM; in experiment [4], 0.2 µM; in experiment [5], 0.48 µM. The TGI in experiment [6] is over 25 µM.
On to `Nc1nc(N)c(N=Nc2ccc([As](=O)(O)O)c(O)c2)c(N)n1`, for which the TGI in experiment [1] is over 100 µM; in experiment [2], over 100 µM; in experiment [3], over 100 µM; in experiment [4], over 100 µM; in experiment [5] it was over 100 µM; in experiment [6] it was over 26.8 µM.
For `COc1ccc2c(C(=O)NCCCCCC(=O)O)cc3cc4c(cc3c2c1)OCO4`, the GI50 was over 100 µM in experiment [1]; over 100 µM in experiment [8]; over 100 µM in experiment [2]; over 100 µM in experiment [3]; over 100 µM in experiment [4]; 58 µM in experiment [5]. In addition, the GI50 in experiment [6] is over 100 µM. For the same molecule, the TGI in experiment [1], in experiment [8], in experiment [2], in experiment [3], in experiment [4] and in experiment [5] was over 100 µM each time. Also, the TGI in experiment [6] was over 100 µM.
With `Cc1cc(=O)[nH]c2c1C(=O)C(=O)C=C2`, the GI50 in experiment [8] is over 100 µM; in experiment [2], 17.6 µM; in experiment [3] it was 29.8 µM; in experiment [4], 29 µM; in experiment [5], 18.7 µM; in experiment [6], 16.8 µM. In addition, the TGI was over 100 µM in experiment [8]; 35.7 µM in experiment [2]; 96.8 µM in experiment [3]; 60.6 µM in experiment [4]; 43.7 µM in experiment [5]; 32.7 µM in experiment [6].
For `OC(c1cc2c(Cl)cc(Cl)cc2c2cc(C(F)(F)F)ccc12)C1CCCCN1` (stereo unspecified), the GI50 in experiment [1] was 1.46 µM; in experiment [8], 1.64 µM; in experiment [2], 1.72 µM; in experiment [3] it was 1.85 µM; in experiment [5], 1.86 µM; in experiment [6], 1.8 µM. For the same molecule, the GI50 in experiment [7] is 1.49 µM. Besides, the TGI in experiment [1] worked out at 2.9 µM; in experiment [8], 3.24 µM; in experiment [2], 3.47 µM; in experiment [3], 3.91 µM; in experiment [5] it was 3.82 µM; in experiment [6], 3.38 µM. This molecule yielded a TGI in experiment [7] of 3.95 µM.
`N=C(N)c1ccc(-c2ccc(-c3ccccc3)o2)o1`: the GI50 is 3.03 µM in experiment [1]; 1.61 µM in experiment [8]; 3.59 µM in experiment [2]; 1.75 µM in experiment [3]; 1.68 µM in experiment [4]; 2.98 µM in experiment [5]. Besides, in experiment [6], the GI50 is 3.12 µM. For the same molecule, the TGI was determined as 11.7 µM in experiment [1]; 3.25 µM in experiment [8]; 15.3 µM in experiment [2]; 3.53 µM in experiment [3]; 5.61 µM in experiment [4]; 12.3 µM in experiment [5]. This molecule also displayed a TGI in experiment [6] of 10.3 µM.
Take `COc1ccc(/C=C/c2cnnc3ccccc23)cc1OC`: the TGI in experiment [1], in experiment [8], in experiment [2], in experiment [3], in experiment [4] and in experiment [5] was over 10 µM in each case. Further, in experiment [6], the TGI was over 10 µM.
Take `C/C(=N\O)c1ccc(Nc2cc(-c3ccccc3)nc3c(O)cccc23)cc1`: the GI50 is 14.5 µM in experiment [1]; 10.6 µM in experiment [8]; 12.9 µM in experiment [2]; 16.1 µM in experiment [3]; 11.9 µM in experiment [6]; 1.27 µM in experiment [7]. The TGI in experiment [1] came to 31 µM; in experiment [8], 23.4 µM; in experiment [2], 26.6 µM; in experiment [3], 30.3 µM; in experiment [6], 27.6 µM; in experiment [7], 24.1 µM.
As to `O=C(Nc1ccc(-n2cc(-c3ccncc3)c(-c3ccc(Cl)c(O)c3)n2)cc1)c1ccc(Cl)c(C(F)(F)F)c1`, the GI50 in experiment [1] was 5.53 µM; in experiment [8], 1.69 µM; in experiment [2], 0.622 µM; in experiment [4], 1.92 µM; in experiment [5], 2.68 µM; in experiment [6] it was 4.39 µM. For the same molecule, in experiment [7], the GI50 is 1.37 µM. The TGI in experiment [1] was 34.9 µM; in experiment [8] it was 6.96 µM; in experiment [2] it was 2.2 µM; in experiment [4], 8.6 µM; in experiment [5], over 31.8 µM; in experiment [6], over 83.6 µM. Besides, the TGI in experiment [7] was over 26.2 µM.
`c1ccc2c(c1)-c1nc3ccccc3cc1C2N1CCOCC1` (stereo unspecified): the TGI in experiment [1], in experiment [2], in experiment [3], in experiment [4], in experiment [5] and in experiment [6] was over 100 µM throughout. In addition, the TGI in experiment [7] is over 100 µM.
Regarding `CCCCCCCCCCCC(=O)[O][Sn]([CH2]CCC)([CH2]CCC)[CH2]CCC`, the GI50 in experiment [1] was 0.0241 µM; in experiment [8] it was 0.0669 µM; in experiment [2], 0.0795 µM; in experiment [3] it was 0.0211 µM; in experiment [4], 0.037 µM; in experiment [5] it was 0.0535 µM. In addition, in experiment [6], the GI50 is 0.0767 µM. Besides, the TGI in experiment [1] worked out at 0.0883 µM; in experiment [8], 0.187 µM; in experiment [2], 0.232 µM; in experiment [3] it was 0.0772 µM; in experiment [4], 0.161 µM; in experiment [5], 0.199 µM. In addition, the TGI in experiment [6] was 0.221 µM.
